Laboratory results: patent US20110020434A1, “NANOPARTICLE ARSENIC-PLATINUM COMPOSITIONS” (priority 2005, published 2011)
Where two headings read alike, the source gives them in different places.

Experiments:
[1] = system: OVCAR-3 (human ovary adenocarcinoma cells); test: MTS cell proliferation cytotoxicity assay; assay type: cell-based; settings: 72 h drug treatment
From the text: (§1) Cell culture. SU-DHL-4 (human lymphoma B cells) was from the Deutsche Sammlung von Mikroorganismen and Zellkulturen GmbH (DSMZ, Braunschweig, Germany). MM.1S (human multiple myeloma B cells) was previously established in the laboratory of Prof. Steven. T. Rosen (Robert H. Lurie Comprehensive Cancer Center, Northwestern University). IM-9 (human lymphoblast B cells), MDA-MB-231 (human breast adenocarcinoma cells), OVCAR-3 (human ovary adenocarcinoma cells), KB (human nasopharyngeal epidermal carcinoma cells, FR), and MCF-7 (human breast carcinoma cells, FR^-) (Sonvico et al. J. Drug Del. Sci. Tech. 2005, 15, 407-410, Chen et al. Mol. Cancer Ther. 2009, in press., herein incorporated by reference in their entireties) were purchased from ATCC (Manassas, Va., USA). All Cells were maintained at 37° C. in an incubator with 5% CO2 and harvested in the exponential phase of growth. SU-DHL-4, IM-9, and MM.1S cells were cultured in RPMI-1640 supplemented with 10% FBS, 2 mM glutamine, 100 units/mL penicillin-streptomycin, and 2.5 μg/mL Amphotericin B. MDA-MB-231 cells were cultured in DMEM/F12 supplemented with 5% cds-FBS, 2 mM glutamine, 100 units/mL penicillin-streptomycin, and 0.1% human insulin solution. OVCAR-3 cells were cultured in RPMI-1640 supplemented with 20% FBS, 100 units/mL penicillin-streptomycin, and 0.1% human insulin solution. MCF-7 cells was cultured in EMEM supplemented with 10% FBS, 2 mM glutamine, 100 units/mL penicillin-streptomycin and 2.5 μg/mL Amphotericin B. KB cells were cultured in EMEM supplemented with 10% FBS and 50 units/mL penicillin-streptomycin. For folate-targeting experiments, KB cells were transferred into folate-deficient RPMI-1640 medium for more than one week before each experiment (Lee et al. J. Biol. Chem. 1994, 269, 3198-3204, herein incorporated by reference in its entirety).
(§2) The MTS assay is one of most high throughput and economical assays for detecting viability of cancer cells. Briefly, SU-DHL-4 and IM-9 (40,000 cells/mL), and MM.1S (250,000 cells/mL) were treated with drugs and plated in quadruplicate (100 uL/well) onto 96-well plates. For MDA-MB-231 and OVCAR-3, 20,000 cells/mL were plated in quadruplicate (100 uL/well) onto 96-well plates, incubated overnight and then treated with drugs. After incubation for the indicated period at 37° C., the MTS/PMS solution (20 μL/well) was added to each well and the plates were further incubated for 4 h at 37° C. before reading the absorbance at 490 nm. Cell growth rates were expressed as a function of drug concentration on a logarithmic scale. The IC50 values (the drug concentration required for 50% inhibition of cell growth) were determined by fitting to a sigmoidal dose-response curve using Origin 6.0 software (Microcal Software, Inc., Northampton, USA). In the case of the 1.5 h (SEE FIG. 8B) or 2 h (SEE FIG. 9B) time periods, the cells treated with drugs were first incubated for 1.5 h or 2 h at 37° C., then washed twice with PBS to remove un-associated drugs or liposomes, and further incubated up to 48 h (FIG. 8b) or 72 h (FIG. 9b) in drug-free medium, followed by the MTS assay.

[2] = system: KB (FR+) human nasopharyngeal epidermal carcinoma cells; test: Guava ViaCount cytotoxicity assay, folate-targeted liposomes; assay type: cell-based
From the text: as §1
(§3) The in vitro cytotoxicities of folate-targeted liposomes against KB and MCF-7 cells were determined by Guave ViaCount assay (Stearns et al. Cancer Res. 2006, 66, 673-681, Donaldson et al. Cell Death Differ 2009, 16, 125-138, herein incorporated by reference in their entireties) (The MTS assay is not applicable in this case because the folate moiety interferes with the reactions of MTS/PMS agents and seriously impairs accuracy of cell viability (Chen et al. Mol. Cancer Ther. 2009, in press.)). Cells were first plated in 48-well plates at a density of 30,000-60,000 cells/mL, 0.2 mL per well. After 24 h at 37° C., the media were replaced with drug solutions. Cells were thus incubated with drugs continuously for 72 h, or exposed to drugs for 3 h at 37° C., then washed with PBS ×2 and further incubated up to 72 h in drug-free medium. The same Pt concentrations of aqua-cisPt were used as in f-NB(As, Pt). Cell viability was determined by Guave ViaCount (Stearns et al. Cancer Res. 2006, 66, 673-681, Donaldson et al. Cell Death Differ 2009, 16, 125-138, herein incorporated by reference in their entireties), using a Guava EasyCyte Mini flow cytometer (Guava Technologies, Hayward, Calif.). Cells, after released from plates by trypsinization (using 0.05% trypsin/0.02% EDTA), were stained with the Guava Viacount agent, which contains two fluorescent dyes, one cell permeable and one impermeable. This allows viable and dead cell numbers to be accurately determined by Guava Viacount software. Cell growth rates were expressed as a function of drug concentration on a logarithmic scale. The IC50 values (the drug concentration required for 50% inhibition of cell growth) were determined by fitting to a sigmoidal dose-response curve using Origin 6.0 (Microcal Software, Inc., Northampton, USA) (SEE FIGS. 12F-G and Table 3).

[3] = system: MCF-7 (FR−) human breast carcinoma cells; test: as above; assay type: cell-based
From the text: as §1, §3

[4] = system: MCF-7 (FR−) cells; test: Quantitative cellular drug uptake by ICP-MS; assay type: cell-based, human; settings: 3 h at 37° C.
From the text: as §1, with “OVCAR-3 cells were cultured in RPMI-1640 supplemented with 20% FBS, 100 units/mL penicillin-streptomycin, and 0.1% human insulin solution. MCF-7 cells was cultured in EMEM supplemented with 10% FBS, 2 mM glutamine, 100 units/mL penicillin-streptomycin and 2.5 μg/mL Amphotericin B. KB cells were cultured in EMEM supplemented with 10% FBS and 50 units/mL penicillin-streptomycin. For folate-targeting experiments, KB cells were transferred into folate-deficient RPMI-1640 medium for more than one week before each experiment (Lee et al. J. Biol. Chem. 1994, 269, 3198-3204, herein incorporated by reference in its entirety).” left out
Cells were plated, 24 h before each experiment, in 6-well plates with 500,000 cells per well. […] Cell-associated drug was expressed as As and Pt atoms per cell (SEE FIG. 12E and Table 4.

[5] = system: IM-9 (human lymphoblast B cells); assay type: cell-based; settings: 48 h drug treatment
From the text: as §1, §2

[6] = system: MDA-MB-231 (human breast adenocarcinoma cells); assay type: cell-based; settings: 72 h drug treatment
From the text: as §1, §2

[7] = system: SU-DHL-4 (human lymphoma B cells); assay type: cell-based; settings: 48 h drug treatment
From the text: as §1, §2

[8] = system: MM.1S (human multiple myeloma B cells); test: MTS cell proliferation cytotoxicity assay; assay type: cell-based; settings: 72 h drug treatment
From the text: as §1, §2

[9] = system: human lymphoma cell line SU-DHL-4 (CD20-positive); test: MTS cytotoxicity assay of liposomal Ni-arsenic and Rituxan conjugate; assay type: cell-based; settings: 72 h (three days) at 37° C.; read-out: IC50 (arsenic level), SU-DHL-4
Procedure: The human lymphoma B cell line of SU-DHL-4 (CD20-positive) was obtained from the American Type Culture Collection (Rockville, MD, USA). Cells were cultured in RPMI 1640 (Invitrogen Corporation) supplemented with 10% fetal bovine serum, 2 mM glutamine, 100 units/mL penicillim, 100 ug/mL streptomycin, and 2.5 ug/mL fungizone. Cells were maintained at 37° C. in an incubator with 5% CO2 and harvested in the exponential phase of growth.
Cells (25,000 cells/mL) were treated with various drugs and plated in 96-well plates. After incubation for 72 h at 37° C., the MTS solution (20 uL/well) was added to each well and the plates were further incubated for 4 h at 37° C. before the absorbance readings at 490 nm.
In a parallel experiment, SU-DHL-4 cells (100,000 cells/mL) were treated with various drugs and plated in 96-well plates. After incubation at 37° C. for 20 min, cells were washed twice using 200 uL/well of PBS and refilled with 100 uL/well of fresh medium and incubated for an additional 71.6 h. The MTS solution (20 uL/well) was added to each well and the plates were further incubated for 4 h at 37° C. before taking the absorbance readings at 490 nm.

CC(=O)[O-].CC(=O)[O-].N.N.O.O.[Pt+2] [Aqua-cisPt, [cis-(NH3)2Pt(OH2)2](OAc)2]
IC50 ([1]; based on Pt concentration): 2.6 ± 0.8 µM | IC50 ([2]; continuous 72 h incubation, Pt concentration, read-out: KB (FR^+), IC50 (μM), 72 h): 1.3 ± 0.2 µM | IC50 ([2]; read-out: KB (FR^+), IC50 (μM), 3 h, 3 h exposure, washed, drug-free medium up to 72 h, Pt concentration): 9.7 ± 2.5 µM | IC50 ([3]; continuous 72 h incubation, Pt concentration, read-out: MCF-7 (FR^−), IC50 (μM), 72 h): 12.2 ± 0.4 µM | IC50 ([3]; read-out: MCF-7 (FR^−), IC50 (μM), 3 h, 3 h exposure, washed, drug-free medium up to 72 h, Pt concentration): 88.9 ± 14.4 µM | Cellular uptake, MCF-7 (FR^−), Pt ([4]; 10 μM arsenic / 8 μM Pt): 0.24 ± 0.07 ×10^7 atoms/cell | IC50 ([5]; based on Pt concentration): 1 ± 0.01 µM | IC50 ([6]; based on Pt concentration): 17.9 µM | IC50 ([7]; based on Pt concentration): 5.5 µM

Arsenic trioxide [As2O3]
IC50 ([1]; based on As concentration): 2.7 ± 1.1 µM | IC50 ([8]; based on As concentration): 0.58 µM | IC50 ([2]; continuous 72 h incubation, As concentration, read-out: KB (FR^+), IC50 (μM), 72 h): 5.2 ± 1 µM | IC50 ([2]; read-out: KB (FR^+), IC50 (μM), 3 h, 3 h exposure, washed, drug-free medium up to 72 h, As concentration): > 200 µM | IC50 ([3]; continuous 72 h incubation, As concentration, read-out: MCF-7 (FR^−), IC50 (μM), 72 h): 6.9 ± 1.7 µM | IC50 ([3]; read-out: MCF-7 (FR^−), IC50 (μM), 3 h, 3 h exposure, washed, drug-free medium up to 72 h, As concentration): 63.7 ± 22.3 µM | Cellular uptake, MCF-7 (FR^−), As ([4]; 10 μM arsenic): 9.4 ± 2.3 ×10^7 atoms/cell | IC50 [9]: 1.45 µM | IC50 ([5]; based on As concentration): 2.1 ± 0.03 µM | IC50 ([6]; based on As concentration): 10 µM | IC50 ([7]; based on As concentration): 3.7 µM

N.N.[Cl][Pt][Cl] [CisPt, cis-diamine dichloroplatinum(II)]
IC50 ([1]; based on Pt concentration): 2 ± 0.01 µM | IC50 ([8]; based on Pt concentration): 1.43 µM | IC50 ([5]; based on Pt concentration): 0.6 ± 0.2 µM | IC50 ([6]; based on Pt concentration): 14 µM | IC50 ([7]; based on Pt concentration): 3.5 µM
